Results: patent publication US10865176B2, “Small molecule modulators of microRNA-34a” (The Chinese University of Hong Kong, priority 2012, dated 2020)
Marks after values point to notes of the source that are not given here.

Columns and labels:
miR-34a [1] = experiment: miR-34a reporter luciferase assay in Huh7 cells; format: cell-based, human
Description: The pMIR-REPORT™ luciferase plasmid (1 μg; Ambion) was sequentially double digested with Sac I and Hind III (10 units each, 50 μL reaction; NEB) and was gel purified. Double stranded insert DNA encoding the miR-34a binding site was synthesized through standard oligonucleotide synthesis methods. The sequences used were Forward: 5′z […]-3′ (SEQ ID NO:1) and Reverse: 5′: […]-3′ (SEQ ID NO:2). The insert was hybridized (heated to 95° C., and cooled to 4° C. over 30 min, then held at 4° C. for 60 min) and ligated with T4 ligase (200 units, 10 μL reaction, 1:10 vector/insert ratio; NEB) into the digested pMIR-REPORT™ luciferase vector. Positive colonies were selected by PCR colony screens, and the construction of the pMIR-REPORT™-miR-34a vector was confirmed by double enzyme digestion with NheI, MluI and Nhe I, Hind III (NEB). The luciferase reporter vector containing the miR-34a promoter was kindly provided by Prof. Mendell J T from Johns Hopkins University (21).
Huh7 cells were seeded into 96-well plates 12 h prior to transfection. MiR-34a reporter and the control vector were respectively co-transfected with Renilla luciferase pRL-SV40 into Huh7 cells. All transfections were performed in triplicate. The cells were incubated at 37° C. for 4 h followed by the replacement of transfection media with standard DMEM growth media with 10 μM of the natural products library (NPL) compounds (Tim Tec; 0.1% DMSO final concentration). This library contains 640 compounds including natural products and their derivatives. After 48 h of incubation, the media was removed and cells were lysed and the luciferase signals were measured by luciferase assay as described below.
MiR-34a reporter, the luciferase reporter vector containing miR-34a promoter and the control vectors were transfected into HCC cells 12 h before compound treatment. The Renilla luciferase vector pRL-SV40 was co-transfected as an internal control. HCC cells were then treated with compound for 48-72 h. The luciferase activity was measured by Dual Luciferase Reporter Assay (Promega) with a Wallac VICTOR^3V luminometer. The ratio of firefly luciferase to Renilla expression was calculated for each of the triplicates.

miR-34a [2] = experiment: qRT-PCR of primary and mature miR-34a in HCC cells; format: cell-based, human; conditions: for increased miR-34a level by Rubone after p53 knockdown: 2 μM siRNAs targeting p53, 10 μM Rubone; for primary and mature miR-34a levels: 10 μM, 48 h
Description: (§1) Total RNA from cell cultures and HCC xenograft tumors were extracted using Trizol (Invitrogen) according to manufacturer's protocols. Total RNAs were dissolved into nuclease-free ddH2O. For protein extraction, cells and HCC xenograft tumors were lysed in 1×RIPA buffer with 1 mM PMSF and 1× complete protease inhibitor cocktail (Roche, Indianapolis, Ind.). Both RNA and protein were stored at −80° C.
(§2) Total RNA was reversely transcribed into cDNAs using High Capacity cDNA Reverse Transcription Kit (Applied Biosystems, Foster city, CA, USA) and nude RT kit (Invitrogen) individually. qRT-PCR was performed using SYBR Green PCR master mix (TaKaRa, Dalian, China). GAPDH was used as an endogenous control. For measuring miR-34a expression level, qPCR was performed by using SYBR Green PCR master mixture (Invitrogen) and U6 was used as the internal control. All samples were normalized to internal controls and fold changes were calculated by relative quantification (2^−ΔΔct).

Huh7 cells = experiment: MTT cell viability assay, Huh7; format: cell-based, human; conditions: Huh7, 10 μM
Description: (§3) Cell viability was measured by 3-(4,5-Dimethylthiazol-2-yl)-2,5-diphenyltetrazolium bromide (MTT) assay. 1×10^3 Cells were seeded in triplicate on a 96 well plate and were allowed to grow for indicated time points. At each time point a set of cells were incubated with 0.5 mg/ml MTT diluted in 1×PBS. After 2 to 4 h incubation, the MTT solution was removed. The insoluble MTT was dissolved in DMSO. Absorbance at 570 nm was measured by an ELISA plate reader.

Hep3B cells = experiment: MTT cell viability assay, Hep3B; format: cell-based, human; conditions: different concentrations and time points
Description: as §3

[3] = test system: non-tumorigenic human hepatocyte cell line MIHA; experiment: MTT cell viability assay, MIHA; format: cell-based; conditions: different concentrations and time points
Description: as §3

HCC cells = experiment: MTT cell viability assay, HCC cell lines; format: cell-based, human; conditions: 5 μM
Description: as §3

HepG2 xenografted tumor = experiment: HepG2 xenografted nude mice model, tumor growth; format: in vivo; conditions: for Tumor growth inhibition (%) / Tumor weight (g): gavage once every two days; for Tumor growth inhibition (%): 24 d; for Tumor weight (g): day 24, mean (95% CI)
Description: (§4) Tumor volume was calculated as [(Length×Width×Height)[…]]. Treatment was continued for 24 d. Finally, all mice were sacrificed and tumors were excised. Tumor weight was recorded.

miR-34a [4] = experiment: qRT-PCR of pri-miR-34a and miR-34a in xenografted tumors; format: in vivo, nude mice; conditions: excised tumors after 24 d gavage
Description: as §1, §2, §4

Cyclin D1 and Bcl-2 = experiment: qRT-PCR of Cyclin D1 and Bcl-2 in xenografted tumors; format: in vivo, nude mice; conditions: excised tumors after 24 d gavage
Description: as §1, §2, §4

p53 [5] = target: p53 (Homo sapiens, UniProt P04637); experiment: ChIP assay, p53 occupancy on miR-34a promoter; format: cell-based; conditions: HepG2 cells, 10 μM
Description: (§5) ChIP assay was performed as described before (26). Cross-linked chromatin were incubated overnight with anti-H3 (Cat #: 9003, Cell Signaling Technology), IgG (Cat #: 9003, Cell Signaling Technology), p53 (Cat #: sc-106, Santa Cruz, Cambridge, Mass.). The precipitated DNA were quantitated absolutely by real-time PCR and normalized by respective 2% input.

p53 [6] = experiment: ChIP assay, p53 occupancy on miR-34a promoter; format: cell-based, human; conditions: Bel-7404 cells, 10 μM
Description: as §5

Sequence of p53 (Homo sapiens, UniProt P04637) (P04637 whole entry): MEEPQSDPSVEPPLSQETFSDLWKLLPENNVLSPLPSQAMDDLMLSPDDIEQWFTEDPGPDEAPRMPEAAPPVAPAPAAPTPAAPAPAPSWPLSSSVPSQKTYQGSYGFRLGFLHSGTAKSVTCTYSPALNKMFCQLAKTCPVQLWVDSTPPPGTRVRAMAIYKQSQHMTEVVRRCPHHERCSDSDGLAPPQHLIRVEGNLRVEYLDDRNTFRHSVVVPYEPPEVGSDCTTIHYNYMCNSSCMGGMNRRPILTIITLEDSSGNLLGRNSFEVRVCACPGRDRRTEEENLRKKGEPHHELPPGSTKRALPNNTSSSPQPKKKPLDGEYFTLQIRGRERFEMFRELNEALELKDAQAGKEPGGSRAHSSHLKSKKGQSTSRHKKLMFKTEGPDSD

## COc1cc(O)c(C(=O)/C=C/c2cc(OC)c(OC)cc2OC)c(OC)c1 [Rubone, 2′-Hydroxy-2,4,4′,5,6′-pentamethoxychalcone]
miR-34a [1]
  function as miR-34a activator, re-assayed in triplicate with miR-34a reporter system: functions as the miR-34a activators are confirmed
miR-34a [1]; Homo sapiens, Huh-7, 48 h
  IC50: 3.8 µM
miR-34a [1]; indicated concentrations, 48 h
  luciferase activities of miR-34a reporter: inhibited the luciferase activities in a dose-dependent manner
miR-34a [2]; Bel-7404 cells
  increased miR-34a level by Rubone after p53 knockdown: significantly reversed by p53 knockdown
miR-34a [2]; Hep3B cells (p53 deleted)
  primary and mature miR-34a levels: no change
miR-34a [2]; HepG2 cells (wild-type p53)
  primary and mature miR-34a levels: significantly increased
miR-34a [2]; HepG2 cells
  increased miR-34a level by Rubone after p53 knockdown: significantly reversed by p53 knockdown
miR-34a [2]; Huh7 cells (mutant p53)
  primary and mature miR-34a levels: significantly increased
Huh7 cells
  cell growth (MTT): significantly inhibited the growth
Hep3B cells
  growth rate (MTT): little changes in the growth rate
[3]
  growth rate (MTT): little changes in the growth rate
HCC cells
  cell growth (MTT): inhibited the growth of HCC cells slightly
HepG2 xenografted tumor; 20 mg/kg
  Tumor growth inhibition (%): 78.27%
  Tumor weight (g): 0.256 (95% CI = 0.08 − 0.42)** g
HepG2 xenografted tumor; 50 mg/kg
  Tumor growth inhibition (%): 89.64%
  Tumor weight (g): 0.122 (95% CI = 0.067 − 0.18)** # g
HepG2 xenografted tumor; same dosage of 50 mg/kg, p=0.047 vs. sorafenib treated group
  tumor growth inhibition compared with Sorafenib: stronger tumor growth inhibition than Sorafenib
miR-34a [4]
  pri-miR-34a and miR-34a levels in xenografted tumors: up-regulated
Cyclin D1 and Bcl-2
  Cyclin D1 and Bcl-2 expression in xenografted tumors: down-regulated
p53 [5]
  p53 occupancy on miR-34a promoter: significantly increased p53 occupancy
p53 [6]
  p53 occupancy on miR-34a promoter: significantly increased p53 occupancy
